From publication PMC3621862, “Re-Directing an Alkylating Agent to Mitochondria Alters Drug Target and Cell Death Mechanism” (PLoS ONE, 2013)
“Also recorded” adds a separate entry of the source. Read-outs that look alike come from different tables or passages of the source. Square brackets hold non-standard residues; d marks the D form. Peptide text beside a SMILES is read from it. * marks the point of attachment. ξ: configuration not given here. Chlorambucil = O=C(CCCc1ccc(N(CCCl)CCCl)cc1)*; ξCha = NC(CC1CCCCC1)C(=O)O

Experiments:
Maximal tolerated dose = settings: mouse, in vivo, ip; NOD/SCID mice, intraperitoneal
Protocol: Non-obese diabetic/severe combined immunodeficiency (NOD/SCID) mice were treated intraperitoneally with increasing concentrations of Cbl (10–500 mg/kg) or mt-Cbl (10–50 mg/kg). Animals were monitored daily for weight loss, lethargy and other signs of physical discomfort. […] All animal studies were carried out according to the regulations of the Canadian Council on Animal Care and with the approval of the Ontario Cancer Institute Animal Ethics Review board or the Faculty of Medicine Animal Care Committee at the University of Toronto.

[1] = tested on: caspase 3/7 activity in HeLa cells; assay: Caspase-Glo 3/7 activity assay; type: cell-based; settings: 6 hours
Protocol: (§1) HeLa cells were seeded at 7500 cells/well a day prior to experiments in white flat clear-bottom 96-well plates (Greiner Bio one). Cells were incubated with Cbl, Cbl conjugates, staurosporin or digitonin as appropriate at indicated concentrations. Cellular ATP levels and protease activity were measured after a 90 minute incubation using the Mitochondrial ToxGlo assay (Promega) as per manufacturer's instructions. To assess caspase 3/7 activity, cells were incubated with compound for 6 hours prior to measurement with the Caspase-Glo® 3/7 Assay (Promega) as per manufacturer's instructions.

[2] = tested on: caspase-3 and PARP-1 cleavage in HeLa cells; type: cell-based
mouse livers = assay: Liver toxicity: H&E histology and plasma liver enzymes; type: in vivo; settings: mt-Cbl 15 mg/kg, Cbl 3.7 mg/kg every other day for 21 days
Protocol: Mice were treated every other day with equimolar doses of either mt-Cbl (15 mg/kg), Cbl (3.7 mg/kg) or vehicle control for 21 days by Kard Scientific (Beverly, MA). Following sacrifice, mouse livers and K562 xenograft tumors were fixed in 10% formalin overnight and then transferred to 70% ethanol. Samples were then paraffin-embedded, sectioned and stained in a standard manner by the Pathology Research Program Laboratory at Toronto General Hospital. Biotin-conjugated secondary antibodies, avidin horseradish peroxidase and the chromogenic diaminobenzidine tetrahydrochloride (DAB) were used for detection. Slides were imaged at 20× and then analyzed using Aperio ImageScope Software (Aperio Technologies, Vista, California). Positive pixels were identified and counted using the Positive Pixel Count V9 algorithm in this software. Quantification was performed on ten representative squares of 2500×2500 μm each and an average was calculated. % Positive Pixels was determined by dividing the positive pixel count by the total number of pixels analyzed. A standard hematoxylin and eosin (H&E) staining was performed on liver sections and these were reviewed for hepatotoxicity and injury by a pathologist with liver expertise. In addition, liver toxicity was evaluated though determination of levels of specific liver enzymes. Mice were treated every other day with equimolar doses of either mt-Cbl (15 mg/kg), Cbl (3.7 mg/kg) or vehicle control for 21 days. Three days after the final dose, mouse plasma samples were tested for levels of bilirubin, alkaline phosphatase and aspartate transaminase in a standard manner.

[3] = Biodistribution in K562 xenograft mice; type: in vivo, mouse; settings: K562 xenograft NOD/SCID mice; mt-Cbl 15 mg/kg, Cbl 100 mg/kg i.p. daily for 10 days
Protocol: K562 cells (3×10^6) were injected subcutaneously into the flanks of ten NOD/SCID mice (Ontario Cancer Institute, Toronto, ON). Palpable tumours were formed 7 days after injection and mice were then treated daily for 10 days with Cbl (100 mg/kg) or mt-Cbl (15 mg/kg) by intraperitoneal injection. Mice were sacrificed 17 days after injection of cells and organs were excised for analysis of Cbl and mt-Cbl biodistribution profiles. The liver, kidneys, spleen, heart, lungs and brain were removed from mice following sacrifice and immediately frozen in dry ice until analysis. Tissues were homogenized in four volumes of ice-cold acetonitrile and centrifuged at 10,000×g for 10 min, 4°C. The resulting supernatant was analyzed via HPLC-MS/MS to determine drug concentrations in each tissue.

[4] = Pharmacokinetic study, plasma levels by HPLC-MS/MS; type: in vivo; settings: mouse, ip, CD1 mice, single dose 10 mg/kg intraperitoneal; for AUC: unit inferred
Protocol: Animal handling and dose administration was performed by Kard Scientific (Beverly, MA). Six CD1 mice were treated with a single dose of 10 mg/kg mt-Cbl or Cbl via intraperitoneal injection. Blood samples were collected at 15 min, 30 min, 1 h, 2 h, 4 h and 8 h in heparin-treated tubes. Samples were kept on ice until centrifugation at 1,500 rpm for 20 min, 4°C and the resulting plasma supernatants were transferred to fresh tubes. Plasma proteins were precipitated with four volumes of ice-cold acetonitrile and spun at 10,000×g for 10 min, 4°C. The resulting supernatant was analyzed via HPLC-MS/MS to determine plasma concentrations of Cbl and mt-Cbl.

[5] = in water; cited from earlier work
leukemia = tested on: leukemia; design: method as in PMID 8241831; settings: cited from earlier work
[6] = Rate of hydrolysis in saline or plasma (HPLC-MS/MS); type: in vitro ADME, mouse; settings: 37°C
Protocol: Stability of mt-Cbl and MPP in mouse plasma: Thiazole orange-labelled conjugates were incubated in mouse plasma for three weeks at room temperature. The stability of these compounds was then assessed via reverse-phase HPLC. A single peak with the identical retention time to a fresh conjugate control was considered to be a positive result for stability in mouse plasma. Rate of mt-Cbl and Cbl hydrolysis in saline or plasma: Cbl and mt-Cbl were incubated in saline or plasma for 0 h, 0.5 h, 1 h, 1.5 h, 2 h, 2.5 h and 3 h at 37°C. Following this, plasma proteins were precipitated in four volumes of ice-cold acetonitrile and centrifuged at 10,000×g for 10 min, 4°C. The resulting supernatant was analyzed via HPLC-MS/MS to determine active drug concentrations in each sample.

mtDNA of HL-60 cells = assay: Cbl-conjugate labeling of mtDNA (dot blot with TPP antibody); type: cell-based; settings: 10 uM, 30 min
Protocol: HL-60 cells (25 million cells) were incubated with Cbl-TPP (10 uM) for 30 min, after which the cells were collected. The cells were then washed with ice-cold PBS, and their mitochondria were isolated using Mitochondrial Isolation Kit for Mammalian Cells (Thermo Scientific). The mtDNA was extracted from the mitochondrial pellets using AllPrep DNA/RNA Mini Kit (QIAGEN). DNA concentration was measured using a NanoDrop 1000 Spectrophotometer (Thermo Scientific) and then normalized (10 ng/μl). After this, a nitrocellulose membrane was spotted with untreated and treated DNA and UV crosslinked using UV Stratalinker 1800 (Stratagene) The membrane was blocked with 5% BSA-TBST for 1 hr at room temperature and then probed with TPP antibody (1∶5000) at 4°C overnight. Then the membrane was washed and visualized with chemiluminescence detection (GE Amersham).

[7] = tested on: 143B cells and 143B ρ° cells; assay: CCK-8 cell viability in 143B parental and ρ° cells; type: cell-based; settings: overnight incubation, various doses
[8] = Alkylation activity with 4-(4-nitrobenzyl)pyridine; settings: absorbance of 4-(4-nitrobenzyl)pyridine
Description: Supplementary file pone.0060253.s005.pdf: Figure S5 Characterization of Cbl-TPP. (a) Chemical structure of Cbl-TPP . Cbl was conjugated to a triphenylphosphonium ion to generate Cbl-TPP. (b) Alkylation activity of Cbl, mt-Cbl and Cbl-TPP.

HeLa cells [9] = assay: Mitochondrial ToxGlo assay, protease activity and cellular ATP levels; type: cell-based; settings: 90 minutes, various doses (over EC50)
Protocol: as §1

[10] = tested on: mitochondrial proteins of HL-60 cells; assay: Cbl-conjugate labeling of mitochondrial proteins (immunoblot); type: cell-based; settings: HL60 cells, 30 min; biotin-labeled mt-Cbl 1.5 μM or Cbl-TPP 10 uM
Protocol: HL-60 cells (25 million cells) were incubated with biotin-labeled mt-Cbl peptide (Biotin-mt-Cbl) (0, 1.5 μM) or Cbl-TPP (10 uM) for 30 min, after which the cells were collected. The cells were then washed with ice-cold PBS, and their mitochondria were isolated using Mitochondrial Isolation Kit for Mammalian Cells (Thermo Scientific). The mitochondrial pellets were then lysed using RIPA buffer plus protease inhibitors for 30 min. at 4°C and the total protein concentration determined using BCA assay. Lysates (10 μg of total protein) were then loaded onto 7% gels and run at 30 V for 30 min. and 150 V for 1 hour using a tris-tricine buffer system (Cathode buffer: 0.1 M Tris, 0.1 M Tricine, and 0.1% SDS, Anode buffer: 0.2 M Tris-Cl, pH8.9). Immunoblotting was continued as described previously using biotin antibody to detect the biotin tag on mt-Cbl or TPP antibody to detect Cbl-TPP.

HeLa cells [11] = settings: 18 hours treatment
[12] = Stability in mouse plasma over three weeks (HPLC); settings: three-week incubation, HPLC single peak

With `O=C(O)CCCc1ccc(N(CCCl)CCCl)cc1` [Cbl, chlorambucil, reference compound] the MTD (Maximal tolerated dose) was 400 mg/kg, the Caspase-3/7 activity [1] was “increase in caspase-3/7 activity in a dose-dependent manner” and the “Cleavage of caspase-3 and PARP-1” value ([2]; HeLa, Cbl 750 μM, 8 hours, Q-VD-Oph 20 μM pretreatment) was “induced the cleavage and activation of caspase-3”. For the same compound, the “Liver histology (H&E)” value (mouse livers) was “histologically normal with no features of injury or toxicity”, the “Plasma levels of bilirubin, alkaline phosphatase and aspartate aminotransferase” value (mouse livers) was “No significant change” and the Accumulation in liver [3] was “site of greatest accumulation”. The Levels in kidneys [3] was “very low levels”, the Cmax [4] was 200 ng/mL and the half-life [4] was 0.75 h. For the same compound, the AUC [4] was 147 ng·h/mL, the half-life [5] was 0.5 h and the “Initial response rate in patients” value (leukemia) was 40–60%. For the same compound, the half-life ([6]; mouse plasma) was 1 h and the half-life ([6]; mouse, saline) was 1 h.

In the case of `O=C(CCCc1ccc(N(CCCl)CCCl)cc1)NCCC[P+](c1ccccc1)(c1ccccc1)c1ccccc1` [Cbl-TPP], the “Alkylation of mtDNA” value (mtDNA of HL-60 cells) is reported as “Alkylation of both mtDNA and proteins”, the “Toxicity in 143B parental versus mtDNA-free ρ° derivative” value [7] is reported as “overlapping toxicity profiles” and the “Alkylation activity (rate of alkylation)” value [8] is reported as “retained alkylation activity very similar to that observed with the MPP conjugated form of mt-Cbl; also recorded: reduces its alkylation activity”. For the same compound, the “Cellular ATP level” value (HeLa cells [9]) was “drastic drop in ATP cellular levels”, the Protease activity (HeLa cells [9]) was “significant increase in protease activity” and the “Alkylation of mitochondrial proteins” value [10] was “Alkylation of both mtDNA and proteins”.

In the case of `CC(=O)NC(CC1CCCCC1)C(=O)N[C@H](CCCNC(=N)N)C(=O)NC(CC1CCCCC1)C(=O)N[C@H](CCCNC(=N)N)C(=O)NC(CC1CCCCC1)C(=O)N[C@H](CCCNC(=N)N)C(N)=O` (stereo partly drawn) [MPP] (Ac-[ξCha][dR][ξCha][dR][ξCha][dR]-NH2; N-terminus and C-terminus assumed), the “Stability in mouse plasma” value is reported as “stable”.

For `CC(C)[C@H](NC(=O)c1ccc2ccccc2n1)C(=O)N[C@@H](CC(=O)O)C(=O)COc1c(F)cccc1F` [Q-VD-Oph], the “Cleavage of caspase-3 and PARP-1” value [2] was “suppressed the effects of Cbl treatment”.

For `N=C(N)NCCC[C@@H](NC(=O)C(CC1CCCCC1)NC(=O)[C@@H](CCCNC(=N)N)NC(=O)C(CC1CCCCC1)NC(=O)[C@@H](CCCNC(=N)N)NC(=O)C(CC1CCCCC1)NC(=O)CCCc1ccc(N(CCCl)CCCl)cc1)C(N)=O` (stereo partly drawn) [mt-Cbl] (Chlorambucil-[ξCha][dR][ξCha][dR][ξCha][dR]-NH2), the MTD (Maximal tolerated dose) was 50 mg/kg, the “Liver histology (H&E)” value (mouse livers) was “histologically normal with no features of injury or toxicity” and the “Plasma levels of bilirubin, alkaline phosphatase and aspartate aminotransferase” value (mouse livers) was “No significant change”. For the same compound, the Accumulation in liver [3] was “site of greatest accumulation”, the “Accumulation in tumors compared to Cbl” value [3] was about 250 fold and the Levels in kidneys [3] was “very low levels”. It also gave a Cmax ([4]; in vivo) of 800 ng/mL, a half-life ([4]; in vivo) of 6 h and an AUC ([4]; in vivo) of 3560 ng·h/mL. The “Half-life (hydrolysis)” value ([6]; mouse plasma) was 1 h, the half-life ([6]; mouse, plasma, saline) was 1 h and the LD50 (HeLa cells [11]; HeLa after siEXOG transfection) was 4.7 µM. The LD50 (HeLa cells [11]; HeLa after siNT (untargeted siRNA control) transfection) was 3.5 µM and the “Stability in mouse plasma” value [12] was “stable in mouse plasma”.
